A word on the Tm: it is the temperature at which the thermal transition is half complete.

Series [1] addresses T1, APLP1 E2 (Homo sapiens, UniProt P51693).
T1 construct: E2 domain, residues 290-495, secreted from Pichia pastoris (pPICZalpha), N-glycosylated fraction removed; dimeric arrangement in crystal
T1 sequence (P51693 290-495): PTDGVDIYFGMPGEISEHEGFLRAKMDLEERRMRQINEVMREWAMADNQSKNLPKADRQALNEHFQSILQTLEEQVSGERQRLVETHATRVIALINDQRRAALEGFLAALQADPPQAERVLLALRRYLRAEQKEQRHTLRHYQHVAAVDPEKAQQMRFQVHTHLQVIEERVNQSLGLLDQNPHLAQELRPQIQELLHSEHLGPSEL
Nature of the series: thermal denaturation (Thermofluor, SYPRO Orange). The class given is binding. To be noted: 10 µM protein, 50 µM oligosaccharide, phosphate pH 5.7, 100 mM NaCl; reference Tm without ligand 43.6 ± 0.2 °C. On the technique in general: DSF heats the sample and reads unfolding from a dye or from intrinsic fluorescence.

Series [2] deals with T1, APLP1 E2. Nature of the series: X-ray co-crystal structure, […] Å. To be noted: equimolar 0.5 mM; pH 6.1-6.3; two binding modes: chain a nonreducing end at dimer centre, chain b on one protomer.
Series [3] deals with the molecule itself. As to the kind of experiment: crystal structure; apo APLP1 E2, orthorhombic crystal form (P212121), 2.6 Å; crystals grown at 20°C in 0.1 M sodium citrate pH 5.6, 0.9 M (NH4)H2PO4, 25% glycerol; two molecules in the asymmetric unit.

On to `O=C(O)C1=C[C@H](O)[C@@H](OS(=O)(=O)O)[C@H](O[C@H]2[C@H](O)[C@@H](NS(=O)(=O)O)[C@@H](O[C@H]3[C@H](O)[C@@H](OS(=O)(=O)O)[C@H](O[C@H]4[C@H](O)[C@@H](NS(=O)(=O)O)[C@@H](O[C@H]5[C@H](O)[C@@H](OS(=O)(=O)O)[C@H](O[C@H]6[C@H](O)[C@@H](NS(=O)(=O)O)[C@@H](O[C@H]7[C@H](O)[C@@H](OS(=O)(=O)O)[C@H](O[C@H]8[C@H](O)[C@@H](NS(=O)(=O)O)[C@@H](O[C@H]9[C@H](O)[C@@H](OS(=O)(=O)O)[C@H](O[C@H]%10[C@H](O)[C@@H](NS(=O)(=O)O)[C@@H](O[C@H]%11[C@H](O)[C@@H](OS(=O)(=O)O)[C@H](O[C@H]%12[C@H](O)[C@@H](NS(=O)(=O)O)C(O)O[C@@H]%12COS(=O)(=O)O)O[C@H]%11C(=O)O)O[C@@H]%10COS(=O)(=O)O)O[C@H]9C(=O)O)O[C@@H]8COS(=O)(=O)O)O[C@H]7C(=O)O)O[C@@H]6COS(=O)(=O)O)O[C@H]5C(=O)O)O[C@@H]4COS(=O)(=O)O)O[C@H]3C(=O)O)O[C@@H]2COS(=O)(=O)O)O1` (stereo partly drawn) [dp12, heparin dodecasaccharide], for which the midpoint of thermal melting (Tm) in series [1] worked out at 55.6 ± 0.5 °C. For the same molecule, in series [2], the “X-ray co-crystal structure, 2.5 Å” value is given as “coordinates of APLP1 E2 in complex with heparin”.
With `O=C(O)C1=C[C@H](O)[C@@H](OS(=O)(=O)O)[C@H](O[C@H]2[C@H](O)[C@@H](NS(=O)(=O)O)[C@@H](O[C@H]3[C@H](O)[C@@H](OS(=O)(=O)O)[C@H](O[C@H]4[C@H](O)[C@@H](NS(=O)(=O)O)C(O)O[C@@H]4COS(=O)(=O)O)O[C@H]3C(=O)O)O[C@@H]2COS(=O)(=O)O)O1` (stereo partly drawn) [dp4, heparin tetrasaccharide], in series [1], the Tm turned out to be 46.9 ± 0.3 °C.
On the same count and under the same terms, next, `O=C(O)C1=C[C@H](O)[C@@H](OS(=O)(=O)O)[C@H](O[C@H]2[C@H](O)[C@@H](NS(=O)(=O)O)[C@@H](O[C@H]3[C@H](O)[C@@H](OS(=O)(=O)O)[C@H](O[C@H]4[C@H](O)[C@@H](NS(=O)(=O)O)[C@@H](O[C@H]5[C@H](O)[C@@H](OS(=O)(=O)O)[C@H](O[C@H]6[C@H](O)[C@@H](NS(=O)(=O)O)[C@@H](O[C@H]7[C@H](O)[C@@H](OS(=O)(=O)O)[C@H](O[C@H]8[C@H](O)[C@@H](NS(=O)(=O)O)C(O)O[C@@H]8COS(=O)(=O)O)O[C@H]7C(=O)O)O[C@@H]6COS(=O)(=O)O)O[C@H]5C(=O)O)O[C@@H]4COS(=O)(=O)O)O[C@H]3C(=O)O)O[C@@H]2COS(=O)(=O)O)O1` (stereo partly drawn) [dp8, heparin octasaccharide]: 53.5 ± 0.5 °C; `O=C(O)C1=C[C@H](O)[C@@H](OS(=O)(=O)O)[C@H](O[C@H]2[C@H](O)[C@@H](NS(=O)(=O)O)[C@@H](O[C@H]3[C@H](O)[C@@H](OS(=O)(=O)O)[C@H](O[C@H]4[C@H](O)[C@@H](NS(=O)(=O)O)[C@@H](O[C@H]5[C@H](O)[C@@H](OS(=O)(=O)O)[C@H](O[C@H]6[C@H](O)[C@@H](NS(=O)(=O)O)[C@@H](O[C@H]7[C@H](O)[C@@H](OS(=O)(=O)O)[C@H](O[C@H]8[C@H](O)[C@@H](NS(=O)(=O)O)[C@@H](O[C@H]9[C@H](O)[C@@H](OS(=O)(=O)O)[C@H](O[C@H]%10[C@H](O)[C@@H](NS(=O)(=O)O)[C@@H](O[C@H]%11[C@H](O)[C@@H](OS(=O)(=O)O)[C@H](O[C@H]%12[C@H](O)[C@@H](NS(=O)(=O)O)[C@@H](O[C@H]%13[C@H](O)[C@@H](OS(=O)(=O)O)[C@H](O[C@H]%14[C@H](O)[C@@H](NS(=O)(=O)O)[C@@H](O[C@H]%15[C@H](O)[C@@H](OS(=O)(=O)O)[C@H](O[C@H]%16[C@H](O)[C@@H](NS(=O)(=O)O)C(O)O[C@@H]%16COS(=O)(=O)O)O[C@H]%15C(=O)O)O[C@@H]%14COS(=O)(=O)O)O[C@H]%13C(=O)O)O[C@@H]%12COS(=O)(=O)O)O[C@H]%11C(=O)O)O[C@@H]%10COS(=O)(=O)O)O[C@H]9C(=O)O)O[C@@H]8COS(=O)(=O)O)O[C@H]7C(=O)O)O[C@@H]6COS(=O)(=O)O)O[C@H]5C(=O)O)O[C@@H]4COS(=O)(=O)O)O[C@H]3C(=O)O)O[C@@H]2COS(=O)(=O)O)O1` (stereo partly drawn) [dp16]: “a slight stability increase of APLP1 was induced by chain lengths beyond eight sugar rings”.

B1: APLP1 E2 domain (amyloid precursor protein-like protein 1, E2 domain) (domain or fragment, human, UniProt P51693 290-495, looked up)
chain: PTDGVDIYFGMPGEISEHEGFLRAKMDLEERRMRQINEVMREWAMADNQSKNLPKADRQALNEHFQSILQTLEEQVSGERQRLVETHATRVIALINDQRRAALEGFLAALQADPPQAERVLLALRRYLRAEQKEQRHTLRHYQHVAAVDPEKAQQMRFQVHTHLQVIEERVNQSLGLLDQNPHLAQELRPQIQELLHSEHLGPSEL
notes: E2 domain of human amyloid precursor protein-like protein 1 (APLP1), amino acids 290-495; Nonglycosylated fraction used; Two protomers in the asymmetric unit of both crystal forms; also called E2 domain of APLP1; apo APLP1 E2
B1: in series [3], the binding result was “binds”.

The record behind these values is publication PMC4356362, “Interaction of the amyloid precursor protein-like protein 1 (APLP1) E2 domain with heparan sulfate involves two distinct binding modes” (Acta Crystallographica Section D: Biological Crystallography, 2015).
